Assay results as given in the OPERA property sets (Mansouri et al. 2018).

Conditions: not given

Compound	boiling point [°C]	log10 vapour pressure (mmHg)	melting point [°C]	ready biodegradability	log10 Henry constant (atm·m³/mol)	log10 Koa	log10 Koc (L/kg)
ClC(Cl)C(Cl)(Cl)Cl	160	0.544	-29	–	–	–	–
CC(=O)I	108	1.51	–	–	–	–	–
C=CCCl	45.1	2.57	-134	readily biodegradable	–	–	–
CCCn1cnc2c1c(=O)n(CCCCC(C)=O)c(=O)n2C	–	–	69	–	–	–	–
C1CNCCN1	146	-0.796	–	not readily biodegradable	–	–	–
C[C@]12CC[C@@H]3c4ccc(OC5CCCC5)cc4CC[C@H]3[C@@H]1C[C@@H](O)[C@@H]2O	–	–	99	–	–	–	–
CC(C)CCCl	98.9	–	-104	–	–	–	–
C=C(C)CC(C)(C)C	101	1.65	-93.5	–	–	–	–
ClCc1ccc(Cl)c(Cl)c1	241	–	37.5	not readily biodegradable	–	–	–
C=Cn1c2ccccc2c2ccccc21	–	–	65	–	–	–	–
O=P(O)(Oc1ccccc1)Oc1ccccc1	–	–	67.5	–	–	–	–
CNC(=O)n1cc(F)c(=O)[nH]c1=O	–	–	226	–	–	–	–
CCCCCCCC(=O)OCCCCCC	277	–	-30.6	–	–	–	–
C=C1C[C@@]23CC[C@H]4[C@@](C)(CCC[C@@]4(C)C(=O)O[C@@H]4O[C@H](CO)[C@@H](O)[C@H](O)[C@H]4O)[C@@H]2CC[C@]1(O[C@@H]1O[C@H](CO)[C@@H](O)[C@H](O)[C@H]1O[C@@H]1O[C@H](CO)[C@@H](O)[C@H](O)[C@H]1O)C3	–	–	198	–	–	–	–
NS(=O)(=O)c1ccc(SCCCCO)cc1	–	–	101	–	–	–	–
S=c1[nH]c2ccccc2[nH]1	–	–	298	not readily biodegradable	–	–	–
FB(F)c1ccccc1	98	–	-36.2	–	–	–	–
CC(C)C(=O)OC(=O)C(C)C	183	–	-53.5	–	–	–	–
c1ccc(CCCc2ccccc2)cc1	300	–	6	–	–	–	–
CCCn1c(=O)[nH]c(=O)c2[nH]cnc21	–	–	288	–	–	–	–
Cc1ccccc1C(=O)Cl	214	–	–	–	–	–	–

Compound	boiling point [°C]	log10 vapour pressure (mmHg)	melting point [°C]	ready biodegradability	log10 Henry constant (atm·m³/mol)	log10 Koa	log10 Koc (L/kg)
CCCOC(=O)c1ccccc1	211	-0.867	-51.6	–	–	–	–
O=C1OC(=O)C2CCCCC12 (centres undefined)	–	–	–	not readily biodegradable	–	–	–
CCCC[N+](CCCC)(CCCC)CCCC.[I-]	–	–	148	–	–	–	–
CN(C)c1ccc2ccccc2c1	305	–	52.5	–	–	–	–
CCCCC(CC)COC(=O)c1ccc(C(=O)OCC(CC)CCCC)c(C(=O)OCC(CC)CCCC)c1 (centres undefined)	414	–	–	not readily biodegradable	–	–	–
CC(=O)Oc1cc(C(F)(F)F)ccc1C(=O)O	–	–	121	–	–	–	–
CCN1C(=O)c2ccccc2C1Nc1ccc(OCCN2CCCCC2)cc1 (centres undefined)	–	–	106	–	–	–	–
O=C1CN(/N=C/c2ccc([N+](=O)[O-])o2)C(=O)N1CN1CCOCC1	–	–	206	–	–	–	–
Clc1cccc(-c2ccccc2)c1	284	-2.13	16	–	-3.21	6.82	–
COc1ccccc1CN	229	–	–	–	–	–	–
C=C1CC2CC1CC2(C)C (centres undefined)	152	–	–	–	–	–	–
CC(C)=CC=O	134	–	–	–	–	–	–
O=C(O)CCBr	–	–	62.5	–	–	–	–
C=CCI	103	–	-99.3	–	–	–	–
CO[SiH](OC)OC	81	1.88	-115	–	–	–	–
CNc1nc(NC(C)C)nc(SC)n1	345	-6	85	–	–	–	–
c1ccc2nsnc2c1	203	–	43	–	–	–	–
N#CCc1ccccc1C(F)(F)F	–	–	33	–	–	–	–
CCC(C)CCC(C)(O)CC (centres undefined)	202	–	-67.5	–	–	–	–
Cc1cc(C)c(Cl)c(O)c1Cl	–	–	87.5	–	–	–	–
COCCN(C(=O)CCl)c1c(C)cccc1C	320	-4.95	46	–	–	–	–

Compound	boiling point [°C]	log10 vapour pressure (mmHg)	melting point [°C]	ready biodegradability	log10 Henry constant (atm·m³/mol)	log10 Koa	log10 Koc (L/kg)
Clc1cc(-c2c(Cl)c(Cl)cc(Cl)c2Cl)c(Cl)c(Cl)c1Cl	–	–	–	–	-5	–	–
BrCc1ccc(CBr)cc1	245	–	144	–	–	–	–
C=Cc1cccc(C)c1	164	0.231	-86.3	–	–	–	–
Cc1ncc(CO)c(C=O)c1O	–	–	165	readily biodegradable	–	–	–
CCN(CC)C(=O)[C@@H]1C=C2c3cccc4[nH]cc(c34)C[C@H]2N(C)C1	–	–	82.5	–	–	–	–
Cc1ccc2c(C)cccc2c1C	–	–	33.5	–	–	–	–
C/C=C\C(=O)OC1C[C@H]2O[C@@H]3C=C(C)C(=O)C[C@]3(C)[C@]1(C)C21CO1 (some centres undefined)	–	–	118	–	–	–	–
O=[N+]([O-])c1cccc(-c2ccccc2)c1	–	–	62	–	–	–	–
O=[N+]([O-])c1ccc2[nH]nnc2c1	–	–	217	–	–	–	–
CCCOCCO	150	0.494	–	–	–	–	–
CCC(C)(C)c1cc(O)c(C(C)(C)CC)cc1O	–	–	180	–	–	–	–
Clc1ccc(CSc2ccc(Cl)cc2)cc1	–	–	75	–	–	–	–
COC(=O)C1(S(=O)(=O)c2ccccc2)CCC1	–	–	108	–	–	–	–
CC(Cl)(Cl)C(=O)[O-].[Na+]	–	–	166	–	–	–	–
O=CN(O)CC(=O)O	–	–	120	–	–	–	–
O=[N+]([O-])c1ccc(Cl)cc1O	–	–	41	–	–	–	–
O=C(F)c1ccccc1	154	–	-28	–	–	–	–
CC#CCCCCCC	162	–	–	–	–	–	–
CCCCCCCCCCCCc1ccccc1O	–	–	–	not readily biodegradable	–	–	–
CCNCc1ccccc1	194	–	–	–	–	–	–
CC(=O)OC(OC(C)=O)c1cccc([N+](=O)[O-])c1	–	–	72	–	–	–	–

Compound	boiling point [°C]	log10 vapour pressure (mmHg)	melting point [°C]	ready biodegradability	log10 Henry constant (atm·m³/mol)	log10 Koa	log10 Koc (L/kg)
O=C(O)C(Cl)Br (racemic)	215	–	31.5	–	–	–	–
CCN(C(=O)n1nnn(-c2ccccc2Cl)c1=O)C1CCCCC1	–	-9.43	79	–	–	–	–
CC(C)CC(=O)Cl	114	–	–	–	–	–	–
N#CCCc1ccccc1	261	–	-1	–	–	–	–
O=Nc1ccc(O)c(N=O)c1O	–	–	168	–	–	–	–
COc1c(Cl)ccc(Cl)c1C(=O)O	–	-4.47	115	–	–	–	1.5
CCCCCCCCCCCCCC(=O)OCc1ccccc1	–	–	20.5	–	–	–	–
C[C@]12CCC(=O)C[C@@H]1CC[C@@H]1[C@@H]2CC[C@@]2(C)[C@H]1CC[C@]2(C)O	–	–	192	–	–	–	–
CC(Cl)=C(Cl)Cl	118	–	–	–	–	–	–
CCCCCCCCCCCCCCCCCCCc1ccccc1	419	–	40	–	–	–	–
CCCOC(=O)c1cc(O)c(O)c(O)c1	–	–	130	–	–	–	–
CCCCCCCCOC(=O)c1ccccc1C(=O)OCCCCCCCC(C)C	447	–	98	–	–	–	–
O=C1c2c(Br)c(Br)c(Br)c(Br)c2C(=O)N1CCN1C(=O)c2c(Br)c(Br)c(Br)c(Br)c2C1=O	–	–	445	–	–	–	–
O=Cc1c(F)c(F)c(F)c(F)c1F	167	–	20	–	–	–	–
Cc1cc([N+](=O)[O-])c(N)c([N+](=O)[O-])c1	–	–	172	–	–	–	–
CC(C)NCCCC1(C(N)=O)c2ccccc2-c2ccccc21	–	–	94.5	–	–	–	–
CC(=O)Oc1cc(C(C)C)c(OCCN(C)C)cc1C	–	–	144	–	–	–	–
CCN(CC)C(=O)C1CN2CCc3cc(OC)c(OC)cc3C2CC1OC(C)=O (centres undefined)	–	–	131	–	–	–	–
O=C(O)CP(=O)(O)O	–	–	144	–	–	–	–
S=C(c1ccccc1)c1ccccc1	–	–	53.5	–	–	–	–
C=C(C)C(=C)C	68.8	2.18	-76	–	–	–	–

Same assay, conditions: fish

Compound	log10 BCF	log10 biotransformation half-life (days)
C=CCCl	0.7	-0.93
C1CNCCN1	0.59	–
C=C(C)CC(C)(C)C	2.78	0.12
CCCCC(CC)COC(=O)c1ccc(C(=O)OCC(CC)CCCC)c(C(=O)OCC(CC)CCCC)c1 (centres undefined)	1.17	–
CC(C)(c1ccccc1)C(C)(C)c1ccccc1	–	0.87
Clc1cc(-c2c(Cl)c(Cl)cc(Cl)c2Cl)c(Cl)c(Cl)c1Cl	–	2.47
C=Cc1cccc(C)c1	1.55	–
